US20060263449A1 (Advanced Gene Technology, Corp., priority 2005, published 2006)

Key:
[1] = test system: phytohemagglutinin (PHA)-stimulated whole blood cell; conditions: cultivated; cited from earlier work
[2] = test system: 67 molecular targets including G-protein coupled receptors, ion channel-coupled receptors, transporters, ion channels and enzymes; assay: In vitro safety evaluation, whole panel; conditions: andrographolide at a concentration of 25 μM in the herbal composition
Method: To confirm possible adverse effects, extensive in vitro studies covering a broad range of physical function-related 67 molecular targets including G-protein coupled receptors, ion channel-coupled receptors, transporters, ion channels and enzymes, were conducted. […] Interactions found in the primary assay can be indicative of in vivo side effects or safety.

C=C1CC[C@@H]2[C@](C)(CO)[C@H](O)CC[C@@]2(C)[C@@H]1C/C=C1/C(=O)OC[C@H]1O [andrographolide]
formation of TNFα and β2MG [1]: increase | side-effect in the in vitro safety evaluation [2]: no significant side-effect
